According to US5866377A, “Aminooligosaccharide derivative and process for preparing the same” (Chong Kun Dang Corporation, priority 1994, dated 1999):
pIC50: −log10 of the molar value.

How the values were obtained:
[1] = Acidic, neutral or basic properties; assay type: physicochemical
Description: 13. Acidic, neutral or basic properties:

Solubility = assay type: physicochemical
Description: soluble in water and ethanol insoluble in benzene and normal hexane

[2] = tested on: Gram-positive bacterial strains; assay: Antibacterial activity, paper disc method, Gram-positive strains; assay type: cell-based; conditions: 1 mg/ml sample
Procedure: (§1) Antibacterial activities for Gram-positive and negative bacterial strains were determined with 1 mg/ml of CK-4416 sample, by employing paper disc method.

blood glucose level = assay: Lowering of sugar level in blood after oral starch load; assay type: in vivo; conditions: male SD rats fasted 12 hrs, 1 hr after administration, glucose oxidase method
Procedure: To two groups of 5 male SD rats fasted for 12 hrs, 1.5 g/kg of starch was orally administered, concurrently with 40 mg/kg and 80 mg/kg of samples. Then, blood was taken from the rats after 1 hr from administration, and glucose level in blood was determined by glucose oxidase method and compared with control group which has not taken the CK-4416 sample.

[3] = tested on: Comamonas terrigena(ATCG 8461); assay: Antibacterial activity, paper disc method, Gram-negative strain; assay type: cell-based; conditions: 1 mg/ml sample, read-out: inhibitory zone
Procedure: To four of 500 ml Erlenmeyer flasks was addled 100 ml of a medium for seed culture(pH 6.5) containing glucose 1 (w/v) %, dextrin 1 (w/v) %, NZ-amine(type A) 0.5 (w/v) %, yeast extract 0.5 (w/v) % and calcium carbonate 0.1 (w/v) %, and sterilized at 120° C. for 15 min. 1 platinum loop of slant culture of Streptomyces sp. CK-4416 which was obtained from a subculture, was inoculated to each of four flasks and incubated under shaking at 27° C. for 3 days. Then, 100 ml of culture media(pH 6.5) containing soluble starch 3 (w/v) %, soybean powder 1.5 (w/v) %, corn steep liquor 1.5 (w/v) %, polypeptone 0.2 (w/v) %, Na2 S2 O3 0.1 (w/v) %, calcium carbonate 0.5 (w/v) %, cobalt chloride 0.0001 (w/v) % was added to 200 of 500 ml Erlenmeyer flasks and sterilized at 120° C. for 30 min. 2 (v/v) % of seed culture was inoculated to the media and incubated at 27° C. for 3 days under shaking at 240 rpm. CK-4416 was quantitatively assayed by the determination of antimicrobial activity employing a test organism Comamonas terrigena(ATCC 8461) in accordance with conventional paper disc method. After 3 days culture, pH and yield were determined as 7.2 and 0.06 mg/ml, respectively.
as §1

amylase = assay: Inhibition of amylase activity; assay type: biochemical; conditions: 0.25M phosphate buffer pH 7.0, starch substrate, 37° C., absorbance at 660 nm; 30 min; read-out: half(50%) inhibition ratio for amylase activity(IC50)
Procedure: An enzyme solution(hereinafter referred to as `solution A`) containing amylase dissolved in 0.25M phosphate buffer(pH 7.0), 0.25M phosphate buffer solution(pH 7.0)(hereinafter referred to as `solution B`) and 0.04 (w/v) % starch solution (hereinafter referred to as `solution C`) were prepared, respectively. Then, 0.05 ml of solution B containing CK-4416 dissolved in solution B, 0.1 ml of solution B and 0.05 ml of solution B were combined to incubate at 37° C. for 5 min, and further incubated for 30 min after the addition of 0.5 ml of solution C. After […], absorbance at 660 nm was deter-mined for CK-4416 sample(T) and control(C) which is free of sample.
Inhibition ratio=(C-T)/C×100

For OCC1OC(OC2C(CO)OC(OC3C(CO)OC(OC4C(CO)OC(OC5C(CO)OC(O)C(O)C5O)C(O)C4O)C(O)C3O)C(O)C2O)C(O)C(O)C1NC1C(O)C(O)C(O)C2(CO)OC12 (single isomer, unassigned) [CK-4416], the “Acidic, neutral or basic properties” value [1] was “weakly basic”, the Solubility (Solubility; in benzene and normal hexane) was “insoluble” and the Solubility (Solubility; in water and ethanol) was “soluble”. For the same compound, the Antibacterial activity [2] was “no activity”, the Blood glucose level (blood glucose level; 40 mg/kg oral with 1.5 g/kg starch) was 97.5 ± 14.3 and the Blood glucose level (blood glucose level; 80 mg/kg oral with 1.5 g/kg starch) was 87.5 ± 11.3. It also gave a zone of inhibition at 1000 µg/mL [3] of 24.8 mm and a pIC50 (amylase) of 5.80.
